Columns and labels:
MnPO^GLP1r neurons = assay: Whole-cell recording from MnPO^GLP1r neurons with Exendin-4; format: cell-based, mice; details: brain slice preparation
From the text: Procedures for preparation of acute brain slices and recordings with optogenetic stimulations were similar to those described previously^[10],[36]. After decapitation, the brain was removed and immersed in ice-cold solution. Coronal slices ([…]) were cut using a vibratome (VT-1200s, Leica) and moved into HEPES-holding solution (NaCl 92, KCl 2.5, NaH2PO4 1.2, NaHCO3 30, HEPES 20, glucose 25, Na-ascorbate 5, Thiourea 2, Na14 pyruvate 3, MgSO4 2, CaCl2 2, pH 7.35). The slices were allowed to recover at 33° C. for 30 min and then held at room temperature ([…]) until use.
While recording, slices were perfused continuously (˜2 mL/min) with artificial cerebrospinal fluid (ACSF-NaCl 124, KCl2.5, NaH2PO4 1.2, NaHCO3 24, glucose 25, MgSO4 1, CaCl2 2) at 25° C. Neurons were visualized and targeted using an upright IR19 DIC microscope (BX51WI, Olympus). […] In order to confirm the PSCs recorded were GABAergic, picrotoxin (150 μM) was applied through the bath in part of the experiments. […] CNO (˜6 μM) was applied by a puff (30 s) from another glass pipette placed ˜50 μm from the recorded cell.

MnPO = assay: Intra-cranial injection of Exendin-4 into the MnPO, water intake; format: in vivo, mice; details: 100 ng into the MnPO vs vehicle (ACSF)
Procedure: 100 ng of Exendin-4 (Sigma Aldrich) dissolved in 1 μL of ACSF was delivered by a custom-made cannula and tubing (PlasticsOne) connected to a Hamilton syringe driven by a pump (NewEra PumpSystems) at 100 nL/min into the MnPO of water deprived animals under head-fixed conditions. Two minutes after infusion, freely-moving animals were given access to water for the next 45 minutes. The cannula position was verified by infusing Exendin-4-FAM (Anaspec) conjugate before euthanasia. ELISA

SFO^nNOS neurons = assay: Salt/Mannitol loading with fiber photometry of SFO^nNOS/MnPO^nNOS neurons and drinking; format: in vivo, mice; details: fiber photometry; for activity of SFO^nNOS neurons after intraperitoneal injection: 2 M solution i.p.
Procedure: Salt/Mannitol Loading Experiments: 150 μL/300 μL of 2 M NaCl or 300 μL of 2 M Mannitol was injected intraperitoneally at the end of the acclimatization period. For FIGS. 1P-T and FIGS. 7P-S, CNO or vehicle (water) was injected 10 min prior to NaCl/Mannitol injection. We measured bulk fluorescence signals using fiber photometry as previously described^[26]. Briefly, 490 nm and 405 nm LEDs ([…] and […]) were collimated and delivered to the brain. The light intensity was kept less than 100 μW during all recordings. The fluorescence signal was then focused onto a femtowatt photoreceiver (Newport, Model 2151). The modulation and demodulation were done with an RP2.1 real time processor (Tucker-Davis Technologies) running custom software. The licks from the lickometer were simultaneously recorded as real-time TTL signals to the RP2.1. Fluorescence changes were analyzed using custom MATLAB (MathWorks) code as described previously^[26]. Data were extracted and subjected to a low pass filter at 1.8 Hz. A linear function was used to scale up the 405 nm channel signal to the 490 nm channel signal to get the fitted 405 nm signal. The resultant ΔF/F was calculated as (raw 490 nm signal-fitted 405 nm signal)/(fitted 405 nm signal). For brief access tests, the Area Under Curve (ΣΔFduring) was quantified by integrating the fluorescence signals during the bout. For all bouts, the mean fluorescence for 30 s prior to the first lick was calculated and subtracted from the entire session. ΔF changes (ΔFpost-ΔFpre) were calculated by subtracting the mean fluorescence signal during the 2-s period before the first lick from the mean signal during the 2-s at 1 min after the bout. For displaying traces, the fluorescence data was time-binned by a factor of 2.5 times the sampling frequency and down-sampled to 1 Hz. For long-term tests, the Area Under Curve was calculated for 2.5 min after the start of the bout. […] For […]), the first bout at the start of the session and the last bout within 10 min of access were used. The AUC for the PSTHs were calculated during the first or the last 15 seconds.

Exendin-4
firing frequency of MnPO^GLP1r neurons (MnPO^GLP1r neurons): no effect on the firing frequency | resting membrane potential of MnPO^GLP1r neurons (MnPO^GLP1r neurons): small decrease | water intake after water deprivation (MnPO): no effect on water intake

[Cl-].[Na+] [NaCl]
activity of SFO^nNOS neurons after intraperitoneal injection (SFO^nNOS neurons): robustly activated | activity of MnPO^nNOS neurons after intraperitoneal injection (SFO^nNOS neurons; 2 M, 300 μl i.p., water-satiated animal): robustly activated

OC[C@@H](O)[C@@H](O)[C@H](O)[C@H](O)CO [Mannitol]
activity of SFO^nNOS neurons after intraperitoneal injection (SFO^nNOS neurons): robustly activated

From patent publication US10960084B2, “Modulation of fluid intake” (California Institute of Technology, priority 2018, dated 2021)
